Reference: patent publication US6803380B1, “5-aryl-1h-1,2,4-triazole compounds as inhibitors of cyclooxygenase-2 and pharmaceutical compositions containing them” (Laboratoire Theramex, priority 1999, dated 2004)

Key:
[1] = molecular target: T1, Cox-2 (Homo sapiens, UniProt P35354); settings: literature; cited from earlier work
T1 sequence (P35354 18-604): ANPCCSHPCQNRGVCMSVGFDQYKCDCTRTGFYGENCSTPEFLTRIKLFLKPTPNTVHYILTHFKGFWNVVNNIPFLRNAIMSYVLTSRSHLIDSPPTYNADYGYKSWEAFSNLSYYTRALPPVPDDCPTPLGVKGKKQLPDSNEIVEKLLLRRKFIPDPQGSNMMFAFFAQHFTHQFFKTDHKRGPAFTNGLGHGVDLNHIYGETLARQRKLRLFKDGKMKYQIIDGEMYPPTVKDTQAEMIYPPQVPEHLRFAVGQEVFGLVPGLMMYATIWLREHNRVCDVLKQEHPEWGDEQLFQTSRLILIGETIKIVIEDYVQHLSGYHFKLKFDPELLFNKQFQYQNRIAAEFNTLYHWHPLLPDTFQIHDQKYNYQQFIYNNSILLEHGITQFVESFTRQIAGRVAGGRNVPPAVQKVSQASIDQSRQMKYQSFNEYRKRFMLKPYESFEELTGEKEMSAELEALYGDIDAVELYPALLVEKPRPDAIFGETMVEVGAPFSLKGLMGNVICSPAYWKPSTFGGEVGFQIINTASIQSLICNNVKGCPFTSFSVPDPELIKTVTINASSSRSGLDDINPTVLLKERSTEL

[2] = molecular target: cyclooxygenase-1 (Homo sapiens, UniProt P23219); settings: literature; cited from earlier work
cyclooxygenase-1, sequence (P23219 24-599, species assumed): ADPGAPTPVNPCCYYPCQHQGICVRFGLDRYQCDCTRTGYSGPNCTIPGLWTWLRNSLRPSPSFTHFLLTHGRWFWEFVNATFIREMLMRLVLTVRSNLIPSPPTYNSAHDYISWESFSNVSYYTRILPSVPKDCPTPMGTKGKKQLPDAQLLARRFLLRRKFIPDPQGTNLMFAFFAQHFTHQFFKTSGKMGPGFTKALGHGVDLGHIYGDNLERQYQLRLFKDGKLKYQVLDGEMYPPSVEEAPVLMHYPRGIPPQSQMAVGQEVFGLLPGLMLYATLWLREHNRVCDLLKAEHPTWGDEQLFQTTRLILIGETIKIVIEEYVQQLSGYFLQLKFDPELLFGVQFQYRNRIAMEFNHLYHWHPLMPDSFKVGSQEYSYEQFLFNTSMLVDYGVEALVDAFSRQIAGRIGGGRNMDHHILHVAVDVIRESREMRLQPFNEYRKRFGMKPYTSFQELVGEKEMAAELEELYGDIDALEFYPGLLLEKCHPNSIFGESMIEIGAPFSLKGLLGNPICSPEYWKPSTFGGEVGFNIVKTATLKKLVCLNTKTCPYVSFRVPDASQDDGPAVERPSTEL

[3] = molecular target: T2, cyclooxygenase-2 (Homo sapiens, UniProt P35354); settings: literature; cited from earlier work
T2 sequence (P35354 18-604): T1 sequence (P35354 18-604)

[4] = molecular target: T3, COX-1 (Ovis aries, UniProt P05979); test: Inhibition of purified COX-1 activity in vitro (PGE2 by enzymo-immunoassay); format: biochemical, ram; settings: concentration 1 μM; for % COX-1 inhibition: negative sign = inhibition
T3 construct: Purified COX-1 from ram seminal vesicles; purchased Cayman Chemicals; host or cells: ram seminal vesicles (tissue-purified)
T3 sequence (P05979 25-600): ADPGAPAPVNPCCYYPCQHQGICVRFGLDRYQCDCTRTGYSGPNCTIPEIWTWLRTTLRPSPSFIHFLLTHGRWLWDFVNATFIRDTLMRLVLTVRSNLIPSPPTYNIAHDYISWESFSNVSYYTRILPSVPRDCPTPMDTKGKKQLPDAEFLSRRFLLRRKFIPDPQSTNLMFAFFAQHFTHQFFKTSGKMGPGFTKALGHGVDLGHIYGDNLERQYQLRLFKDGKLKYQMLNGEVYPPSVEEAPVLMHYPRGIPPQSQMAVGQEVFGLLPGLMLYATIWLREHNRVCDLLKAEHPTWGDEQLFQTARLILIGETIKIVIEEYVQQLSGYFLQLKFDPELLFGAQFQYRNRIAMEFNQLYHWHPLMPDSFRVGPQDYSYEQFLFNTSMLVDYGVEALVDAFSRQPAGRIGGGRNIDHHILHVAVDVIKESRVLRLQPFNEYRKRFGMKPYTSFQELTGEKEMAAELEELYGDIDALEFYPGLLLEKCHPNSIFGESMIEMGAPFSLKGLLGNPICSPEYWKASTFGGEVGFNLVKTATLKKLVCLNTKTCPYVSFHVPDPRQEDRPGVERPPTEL
Procedure: (§1) Example compounds according to the invention were tested for their ability to inhibit COX-1 and/or COX-2 activities in vitro. Purified COX-1 from ram seminal vesicles and purified COX-2 from ewe placenta (both from Cayman Chemicals) were incubated for 10 minutes at 25° C. in the presence of their substrate, arachidonic acid (5 μM), with or without test compounds or standard inhibitors. Prostaglandin E2, the reaction product, was measured by enzymo-immunoassay (R&D Systems). Each individual value results from duplicate determinations. Final inhibition data are means±standard errors of at least (3) independent experiments performed on as many different days.

[5] = molecular target: T4, COX-2 (Ovis aries, UniProt P79208); test: Inhibition of purified COX-2 activity in vitro (PGE2 by enzymo-immunoassay); format: biochemical, ewe; settings: for selective inhibition of COX-2 (in words) / inhibition at 1 µM: concentration 1 μM; for inhibition at 1 µM: read-out: % COX-2 inhibition
T4 construct: purified COX-2 from ewe placenta; purchased Cayman Chemicals; host or cells: ewe placenta (tissue-purified)
T4 sequence (P79208 17-603): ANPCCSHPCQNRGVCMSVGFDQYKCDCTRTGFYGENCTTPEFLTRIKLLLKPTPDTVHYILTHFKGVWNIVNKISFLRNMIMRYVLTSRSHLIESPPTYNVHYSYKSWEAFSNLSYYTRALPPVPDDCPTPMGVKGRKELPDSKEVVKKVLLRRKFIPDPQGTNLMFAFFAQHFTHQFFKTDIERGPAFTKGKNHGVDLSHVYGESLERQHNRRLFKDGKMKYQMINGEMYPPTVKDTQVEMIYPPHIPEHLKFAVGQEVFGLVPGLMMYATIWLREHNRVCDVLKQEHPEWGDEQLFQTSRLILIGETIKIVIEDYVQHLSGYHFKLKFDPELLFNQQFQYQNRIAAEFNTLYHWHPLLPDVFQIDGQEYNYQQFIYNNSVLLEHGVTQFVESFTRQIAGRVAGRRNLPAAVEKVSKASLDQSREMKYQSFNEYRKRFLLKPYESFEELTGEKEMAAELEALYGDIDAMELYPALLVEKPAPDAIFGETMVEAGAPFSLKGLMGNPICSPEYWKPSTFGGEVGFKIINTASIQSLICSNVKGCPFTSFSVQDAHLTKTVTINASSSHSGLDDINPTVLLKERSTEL
Procedure: as §1

% COX-1 inhibition [4]	selective inhibition of COX-2 (in words) [5]	inhibition at 1 µM [5]	melting point	COX-2 inhibitory potency compared with nimesulide (in words) ([5]; same concentration, 1 μM)	SMILES	Cox-2 inhibitory activity (in words) [1]	inhibition of cyclooxygenase-1 (in words) [2]	inhibition of cyclooxygenase-2 (in words) [3]	inhibition of COX-1 (in words) [4]
–	–	–	–	–	Fc1ccc(-c2nc(C(F)(F)F)nn2-c2ccc(Cl)cc2)cc1 [compound (a)]	moderate Cox-2 inhibitory activity	–	–	–
–	–	–	–	–	CS(=O)(=O)c1ccc(-c2nc(C#N)nn2-c2ccc(F)cc2)cc1 [compound (b)]	–	weak and non selective inhibitors	weak and non selective inhibitors	–
−2 ± 5.7%	able to inhibit COX-2 selectively	19 ± 2.6%	186 °C	–	Cc1nc(-c2ccc(S(C)(=O)=O)cc2)n(-c2ccc(Cl)cc2)n1 [Example 3, 1-(4-chloro-phenyl)-3-methyl-5-(4-methylsulfonyl-phenyl)-1H-1,2,4-triazole]	–	–	–	did not show any significant inhibition of COX-1
+8 ± 2.7%	able to inhibit COX-2 selectively	44 ± 6.8%	156 °C	even more potent	COc1ccc(-n2nc(C(F)(F)F)nc2-c2ccc(S(C)(=O)=O)cc2)cc1 [Example 17, 1-(4-methoxy-phenyl)-5-(4-methylsulfonyl-phenyl)-3-trifluoromethyl-1H-1,2,4-triazole]	–	–	–	did not show any significant inhibition of COX-1
